In brackets after ≈: the same amount, converted by molar mass.
Experiments:
Helicobacter pylori [1] = assay: Antibacterial activity against Helicobacter pylori 05-1 assessed as growth inhibition after 16 to 18 hr NCCLS agar dilution method; format: functional
Helicobacter pylori [2] = assay: Antibacterial activity against Helicobacter pylori 05-5 assessed as growth inhibition after 16 to 18 hr NCCLS agar dilution method; format: functional
Helicobacter pylori [3] = assay: Antibacterial activity against Helicobacter pylori 05-14 assessed as growth inhibition after 16 to 18 hr NCCLS agar dilution method; format: functional
Helicobacter pylori [4] = assay: Antibacterial activity against Helicobacter pylori 06-5 assessed as growth inhibition after 16 to 18 hr NCCLS agar dilution method; format: functional
Helicobacter pylori [5] = assay: Antibacterial activity against Helicobacter pylori 05-3 assessed as growth inhibition after 16 to 18 hr NCCLS agar dilution method; format: functional
Helicobacter pylori [6] = assay: Antibacterial activity against Helicobacter pylori 06-8 assessed as growth inhibition after 16 to 18 hr NCCLS agar dilution method; format: functional
Helicobacter pylori [7] = assay: Antibacterial activity against Helicobacter pylori 06-4 assessed as growth inhibition after 16 to 18 hr NCCLS agar dilution method; format: functional
Helicobacter pylori [8] = assay: Antibacterial activity against Helicobacter pylori 06-3 assessed as growth inhibition after 16 to 18 hr NCCLS agar dilution method; format: functional
Helicobacter pylori [9] = assay: Antibacterial activity against Helicobacter pylori 05-4 assessed as growth inhibition after 16 to 18 hr NCCLS agar dilution method; format: functional, 05-Apr
Helicobacter pylori [10] = assay: Antibacterial activity against Helicobacter pylori 05-12 assessed as growth inhibition after 16 to 18 hr NCCLS agar dilution method; format: functional
Helicobacter pylori [11] = assay: Antibacterial activity against Helicobacter pylori 06-7 assessed as growth inhibition after 16 to 18 hr NCCLS agar dilution method; format: functional
Helicobacter pylori [12] = assay: Antibacterial activity against Helicobacter pylori 06-1 assessed as growth inhibition after 16 to 18 hr NCCLS agar dilution method; format: functional
Helicobacter pylori [13] = assay: Antibacterial activity against Helicobacter pylori 05-2 assessed as growth inhibition after 16 to 18 hr NCCLS agar dilution method; format: functional
Helicobacter pylori [14] = assay: Antibacterial activity against Helicobacter pylori 06-6 assessed as growth inhibition after 16 to 18 hr NCCLS agar dilution method; format: functional
Helicobacter pylori [15] = assay: Antibacterial activity against Helicobacter pylori ATCC 11637 assessed as growth inhibition after 16 to 18 hr NCCLS agar dilution method; format: functional
Helicobacter pylori [16] = assay: Antibacterial activity against Helicobacter pylori 05-9 assessed as growth inhibition after 16 to 18 hr NCCLS agar dilution method; format: functional
Helicobacter pylori [17] = assay: Antibacterial activity against Helicobacter pylori 06-2 assessed as growth inhibition after 16 to 18 hr NCCLS agar dilution method; format: functional
Helicobacter pylori [18] = assay: Antibacterial activity against Helicobacter pylori assessed as growth inhibition after 16 to 18 hr NCCLS agar dilution method; format: functional
Pseudomonas aeruginosa = assay: Antibacterial activity against Pseudomonas aeruginosa ATCC 27853 assessed as growth inhibition after 16 to 18 hr NCCLS agar dilution method; format: functional
Staphylococcus aureus = assay: Antibacterial activity against Staphylococcus aureus ATCC 25923 assessed as growth inhibition after 16 to 18 hr by NCCLS agar dilution method; format: functional
Escherichia coli = assay: Antibacterial activity against Escherichia coli ATCC 25922 assessed as growth inhibition after 16 to 18 hr NCCLS agar dilution method; format: functional

SMILES: Cc1ncc([N+](=O)[O-])n1CCO [METRONIDAZOLE]
- MIC (Helicobacter pylori [1]): > 128 µg/mL
- MIC (Helicobacter pylori [2]): > 128 µg/mL
- MIC (Helicobacter pylori [3]): > 128 µg/mL
- MIC (Helicobacter pylori [4]): > 128 µg/mL
- MIC (Helicobacter pylori [5]): > 128 µg/mL
- MIC (Helicobacter pylori [6]): > 128 µg/mL
- MIC (Helicobacter pylori [7]): > 128 µg/mL
- MIC (Helicobacter pylori [8]): > 128 µg/mL
- MIC (Helicobacter pylori [9]): > 128 µg/mL
- MIC (Helicobacter pylori [10]): > 128 µg/mL
- MIC (Helicobacter pylori [11]): > 128 µg/mL
- MIC (Helicobacter pylori [12]): > 128 µg/mL
- MIC (Helicobacter pylori [13]): > 128 µg/mL
- MIC (Helicobacter pylori [14]): > 128 µg/mL
- MIC (Helicobacter pylori [15]): 32 µg/mL (≈ 187 µM)
- MIC (Helicobacter pylori [16]): > 128 µg/mL
- MIC (Helicobacter pylori [17]): > 128 µg/mL
- MIC50 (Helicobacter pylori [18]): > 128 µg/mL
- MIC90 (Helicobacter pylori [18]): > 128 µg/mL

SMILES: CC[C@H]1OC(=O)[C@H](C)[C@@H](O[C@H]2C[C@@](C)(OC)[C@@H](O)[C@H](C)O2)[C@H](C)[C@@H](O[C@@H]2O[C@H](C)C[C@H](N(C)C)[C@H]2O)[C@](C)(OC)C[C@@H](C)C(=O)[C@H](C)[C@@H](O)[C@]1(C)O [CLARITHROMYCIN]
- MIC (Helicobacter pylori [1]): > 128 µg/mL
- MIC (Helicobacter pylori [2]): > 128 µg/mL
- MIC (Pseudomonas aeruginosa): > 64 µg/mL
- MIC (Helicobacter pylori [3]): > 128 µg/mL
- MIC (Staphylococcus aureus): 0.12 µg/mL (≈ 0.16 µM)
- MIC (Helicobacter pylori [4]): > 128 µg/mL
- MIC (Helicobacter pylori [5]): 64 µg/mL (≈ 85.6 µM)
- MIC (Helicobacter pylori [6]): > 128 µg/mL
- MIC (Helicobacter pylori [7]): > 128 µg/mL
- MIC (Helicobacter pylori [8]): > 128 µg/mL
- MIC (Helicobacter pylori [9]): > 128 µg/mL
- MIC (Helicobacter pylori [10]): > 128 µg/mL
- MIC (Helicobacter pylori [11]): 128 µg/mL (≈ 171 µM)
- MIC (Helicobacter pylori [12]): 64 µg/mL (≈ 85.6 µM)
- MIC (Helicobacter pylori [13]): 64 µg/mL (≈ 85.6 µM)
- MIC (Helicobacter pylori [14]): 128 µg/mL (≈ 171 µM)
- MIC (Helicobacter pylori [15]): 32 µg/mL (≈ 42.8 µM)
- MIC (Helicobacter pylori [16]): > 128 µg/mL
- MIC (Escherichia coli): 32 µg/mL (≈ 42.8 µM)
- MIC (Helicobacter pylori [17]): > 128 µg/mL
- MIC50 (Helicobacter pylori [18]): > 128 µg/mL
- MIC90 (Helicobacter pylori [18]): > 128 µg/mL

SMILES: CO/N=C(/C/C=N/OC)c1ccc(OC)cc1
- MIC (Pseudomonas aeruginosa): > 64 µg/mL
- MIC (Staphylococcus aureus): > 64 µg/mL
- MIC (Escherichia coli): > 64 µg/mL

SMILES: CCO/N=C(/C/C=N/OCC)c1ccc(OCC)cc1
- MIC (Pseudomonas aeruginosa): > 64 µg/mL
- MIC (Staphylococcus aureus): > 64 µg/mL
- MIC (Escherichia coli): > 64 µg/mL

SMILES: CO/N=C(/C/C=N/OC)c1ccc(OC(C)C)cc1
- MIC (Pseudomonas aeruginosa): > 64 µg/mL
- MIC (Staphylococcus aureus): > 64 µg/mL
- MIC (Escherichia coli): > 64 µg/mL

SMILES: CCOc1ccc(/C(C/C=N/OC)=N\OC)cc1
- MIC (Pseudomonas aeruginosa): > 64 µg/mL
- MIC (Staphylococcus aureus): > 64 µg/mL
- MIC (Escherichia coli): > 64 µg/mL

SMILES: COc1ccc(C(=O)CC(O)S(=O)(=O)[O-])cc1.[Na+] (centres undefined)
- MIC (Helicobacter pylori [1]): > 128 µg/mL
- MIC (Helicobacter pylori [2]): > 128 µg/mL
- MIC (Pseudomonas aeruginosa): > 64 µg/mL
- MIC (Helicobacter pylori [3]): > 128 µg/mL
- MIC (Staphylococcus aureus): > 64 µg/mL
- MIC (Helicobacter pylori [4]): > 128 µg/mL
- MIC (Helicobacter pylori [5]): > 128 µg/mL
- MIC (Helicobacter pylori [6]): > 128 µg/mL
- MIC (Helicobacter pylori [7]): > 128 µg/mL
- MIC (Helicobacter pylori [8]): > 128 µg/mL
- MIC (Helicobacter pylori [9]): > 128 µg/mL
- MIC (Helicobacter pylori [10]): > 128 µg/mL
- MIC (Helicobacter pylori [11]): > 128 µg/mL
- MIC (Helicobacter pylori [12]): > 128 µg/mL
- MIC (Helicobacter pylori [13]): > 128 µg/mL
- MIC (Helicobacter pylori [14]): > 128 µg/mL
- MIC (Helicobacter pylori [15]): > 128 µg/mL
- MIC (Helicobacter pylori [16]): > 128 µg/mL
- MIC (Escherichia coli): > 64 µg/mL
- MIC (Helicobacter pylori [17]): > 128 µg/mL
- MIC50 (Helicobacter pylori [18]): > 128 µg/mL
- MIC90 (Helicobacter pylori [18]): > 128 µg/mL

SMILES: COc1ccc(C(=O)/C=C\O)cc1
- MIC (Helicobacter pylori [1]): > 128 µg/mL
- MIC (Helicobacter pylori [2]): > 128 µg/mL
- MIC (Pseudomonas aeruginosa): > 64 µg/mL
- MIC (Helicobacter pylori [3]): > 128 µg/mL
- MIC (Staphylococcus aureus): > 64 µg/mL
- MIC (Helicobacter pylori [4]): 128 µg/mL (≈ 718 µM)
- MIC (Helicobacter pylori [5]): > 128 µg/mL
- MIC (Helicobacter pylori [6]): > 128 µg/mL
- MIC (Helicobacter pylori [7]): 128 µg/mL (≈ 718 µM)
- MIC (Helicobacter pylori [8]): > 128 µg/mL
- MIC (Helicobacter pylori [9]): > 128 µg/mL
- MIC (Helicobacter pylori [10]): > 128 µg/mL
- MIC (Helicobacter pylori [11]): 128 µg/mL (≈ 718 µM)
- MIC (Helicobacter pylori [12]): > 128 µg/mL
- MIC (Helicobacter pylori [13]): > 128 µg/mL
- MIC (Helicobacter pylori [14]): 128 µg/mL (≈ 718 µM)
- MIC (Helicobacter pylori [15]): 128 µg/mL (≈ 718 µM)
- MIC (Helicobacter pylori [16]): > 128 µg/mL
- MIC (Escherichia coli): > 64 µg/mL
- MIC (Helicobacter pylori [17]): > 128 µg/mL
- MIC50 (Helicobacter pylori [18]): > 128 µg/mL
- MIC90 (Helicobacter pylori [18]): > 128 µg/mL

SMILES: CCCCOc1ccc(C(=O)C/C=N/OC)cc1
- MIC (Pseudomonas aeruginosa): 64 µg/mL (≈ 257 µM)
- MIC (Staphylococcus aureus): > 64 µg/mL
- MIC (Escherichia coli): > 64 µg/mL

SMILES: CCCCOc1ccc(C(=O)C/C=N/OCC)cc1
- MIC (Pseudomonas aeruginosa): > 64 µg/mL
- MIC (Staphylococcus aureus): > 64 µg/mL
- MIC (Escherichia coli): > 64 µg/mL

SMILES: COc1ccc(C(=O)C/C=N/O)cc1
- MIC (Helicobacter pylori [1]): > 128 µg/mL
- MIC (Helicobacter pylori [2]): > 128 µg/mL
- MIC (Pseudomonas aeruginosa): > 64 µg/mL
- MIC (Helicobacter pylori [3]): > 128 µg/mL
- MIC (Staphylococcus aureus): 4 µg/mL (≈ 20.7 µM)
- MIC (Helicobacter pylori [4]): 64 µg/mL (≈ 331 µM)
- MIC (Helicobacter pylori [5]): > 128 µg/mL
- MIC (Helicobacter pylori [6]): > 128 µg/mL
- MIC (Helicobacter pylori [7]): > 128 µg/mL
- MIC (Helicobacter pylori [8]): 64 µg/mL (≈ 331 µM)
- MIC (Helicobacter pylori [9]): > 128 µg/mL
- MIC (Helicobacter pylori [10]): > 128 µg/mL
- MIC (Helicobacter pylori [11]): 64 µg/mL (≈ 331 µM)
- MIC (Helicobacter pylori [12]): 64 µg/mL (≈ 331 µM)
- MIC (Helicobacter pylori [13]): > 128 µg/mL
- MIC (Helicobacter pylori [14]): 64 µg/mL (≈ 331 µM)
- MIC (Helicobacter pylori [15]): 64 µg/mL (≈ 331 µM)
- MIC (Helicobacter pylori [16]): > 128 µg/mL
- MIC (Escherichia coli): > 64 µg/mL
- MIC (Helicobacter pylori [17]): > 128 µg/mL
- MIC50 (Helicobacter pylori [18]): > 128 µg/mL
- MIC90 (Helicobacter pylori [18]): > 128 µg/mL

SMILES: CCO/N=C(/C/C=N/OCC)c1ccc(OC)cc1
- MIC (Pseudomonas aeruginosa): > 64 µg/mL
- MIC (Staphylococcus aureus): > 64 µg/mL
- MIC (Escherichia coli): > 64 µg/mL

SMILES: CCO/N=C/CC(=O)c1ccc(OC(C)C)cc1
- MIC (Pseudomonas aeruginosa): > 64 µg/mL
- MIC (Staphylococcus aureus): > 64 µg/mL
- MIC (Escherichia coli): > 64 µg/mL

SMILES: CCOc1ccc(C(=O)C/C=N/OC)cc1
- MIC (Pseudomonas aeruginosa): > 64 µg/mL
- MIC (Staphylococcus aureus): 32 µg/mL (≈ 145 µM)
- MIC (Escherichia coli): > 64 µg/mL

SMILES: CCCCOc1ccc(/C(C/C=N/OCC)=N\OCC)cc1
- MIC (Pseudomonas aeruginosa): > 64 µg/mL
- MIC (Staphylococcus aureus): > 64 µg/mL
- MIC (Escherichia coli): > 64 µg/mL

SMILES: CCO/N=C/CC(=O)c1ccc(OCC)cc1
- MIC (Pseudomonas aeruginosa): > 64 µg/mL
- MIC (Staphylococcus aureus): 64 µg/mL (≈ 272 µM)
- MIC (Escherichia coli): > 64 µg/mL

SMILES: CCO/N=C/CC(=O)c1ccc(OC)cc1
- MIC (Pseudomonas aeruginosa): > 64 µg/mL
- MIC (Staphylococcus aureus): 4 µg/mL (≈ 18.1 µM)
- MIC (Escherichia coli): > 64 µg/mL

SMILES: CCO/N=C(/C/C=N/OCC)c1ccc(OC(C)C)cc1
- MIC (Pseudomonas aeruginosa): > 64 µg/mL
- MIC (Staphylococcus aureus): > 64 µg/mL
- MIC (Escherichia coli): > 64 µg/mL

SMILES: CO/N=C/CC(=O)c1ccc(OC(C)C)cc1
- MIC (Pseudomonas aeruginosa): > 64 µg/mL
- MIC (Staphylococcus aureus): > 64 µg/mL
- MIC (Escherichia coli): > 64 µg/mL
